According to PubChem BioAssay (NCI):
Where “and” joins values, the source holds several entries; their conditions need not be identical. Identical values can stand only once.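 How tested: cells in 96-well plates exposed to compound for 48 hours at five concentrations. Abbreviation: GI50, concentration required for 50% inhibition of growth. The concentration for full growth arrest is given as TGI.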

Experiments:
Assay in all cases: growth of human tumour cells (NCI), 48 h
OVCAR-8 ovarian = test system: OVCAR-8 ovarian
SF-539 CNS = test system: SF-539 CNS
LOX IMVI melanoma = test system: LOX IMVI melanoma
HOP-92 NSCLC = test system: HOP-92 NSCLC
NCI-H226 lung = test system: NCI-H226 lung
NCI-H460 lung = test system: NCI-H460 lung

Structure (SMILES) | GI50 (OVCAR-8 ovarian) | TGI (OVCAR-8 ovarian) | GI50 (SF-539 CNS) | TGI (SF-539 CNS) | GI50 (LOX IMVI melanoma) | TGI (LOX IMVI melanoma) | GI50 (HOP-92 NSCLC) | TGI (HOP-92 NSCLC) | GI50 (NCI-H226 lung) | TGI (NCI-H226 lung) | GI50 (NCI-H460 lung) | TGI (NCI-H460 lung) [µM]
COc1cc(-c2nc(SCCC(C)C)nc(Nc3ccc(S(N)(=O)=O)cc3)c2C#N)cc(OC)c1OC | 4 µM | > 100 µM | 2.01 µM | 5.22 µM | 1.91 µM | 4.41 µM | 1.48 µM | 4.47 µM | 1.67 µM | 4.64 µM | 2.8 µM | 8.45
C[N+]1=C(/C=C\C=C\c2ccccc2)C(C)(C)c2ccccc21 | 2.11 µM | 10.5 µM | 2.59 µM | 7.57 µM | 1.31 µM | 2.7 µM | 2.35 µM | 6.77 µM | 4.33 µM | 25.5 µM | 4.44 µM | 17.2
CN(C)c1ccc(/C=C/c2cc[n+](C)c(/C=C/c3ccc(N(C)C)cc3)c2)cc1 | 0.294 µM | 1.26 µM | 0.393 µM | 3.01 µM | 0.356 µM | 1.45 µM | 0.174 µM | 0.655 µM | 0.271 µM | 5.43 µM | 0.343 µM | 1.72
N#C/C(=C\c1ccc(Br)cc1)n1nnc2ccc(F)cc21 | 1.84 µM | 18.2 µM | 1.26 µM | 2.94 µM | 0.347 µM | 1.28 µM |  |  | 1.67 µM | 4.03 µM | 2.26 µM | 5.33
CCOc1ccc2nc(NC(=O)C(=O)C(c3cnc4ccccc4n3)[N+](=O)[O-])sc2c1 (stereo unspecified) |  | > 100 µM |  | > 100 µM |  | > 100 µM |  | > 100 µM |  | > 100 µM |  | > 100
CN(C)CCNC(=O)c1ccc(NC(=O)c2nc([N+](=O)[O-])cn2C)cc1 |  | > 100 µM |  | > 100 µM |  | > 100 µM |  | > 100 µM |  | > 100 µM |  | > 100
C#CCOc1cccc(Nc2ncnc3cc(NC(=O)CCl)ccc23)c1 | 3.32 µM | 11 µM | 3.64 µM | 15 µM | 1.19 µM | 2.7 µM | 12.4 µM | 27.3 µM | 10.7 µM | 32.7 µM | 3.64 µM | 12.1
CC(C)=CC1=C2C3=C(C(=O)C4(O)Oc5c(C)c6c7c(c5OC24C)[C@@H](C)CC[C@@H]7[C@@H](C)C[C@H]6C=C(C)C)C(C)CCC3C(C)C1 (stereo partly specified) | > 100 µM | > 100 µM | > 100 µM | > 100 µM | > 100 µM | > 100 µM |  |  | > 100 µM | > 100 µM | > 100 µM | > 100
O=c1c(-c2ccccc2)coc2cc(OC/C(=N/O)c3ccccc3)ccc12 | 17.3 µM | 50.8 µM | 25.4 µM | 53.3 µM | 18.4 µM | 37.4 µM | 15.3 µM | 47.4 µM | 23.4 µM | > 100 µM | 11 µM | 26.9
Cc1ccc(Cl)cc1NC(=O)c1sc2nc3c(cc2c1N)C(=O)CCC3 | > 100 µM | > 100 µM | 4.65 µM | > 100 µM |  |  | > 100 µM | > 100 µM | > 100 µM | > 100 µM | 3.73 µM | > 100
CCN(CC)c1ccc(C(=O)c2ccc(N(CC)CC)cc2)cc1 | 0.72 µM | > 38.9 µM | 0.436 µM | 10.5 µM | 0.62 µM | 28.3 µM | 0.776 µM | 10.9 µM | 2.54 µM | 61.6 µM | 0.372 µM | 1.99
COc1cc(Nc2ncc(F)c(Nc3ccc4c(n3)N(COP(=O)(O)O)C(=O)C(C)(C)O4)n2)cc(OC)c1OC | 3.33 µM and 3.07 µM | 16.5 µM and > 10 µM | 0.605 µM and 0.454 µM | 1.94 µM and 1.81 µM | 1.38 µM and 1.09 µM | 2.99 µM and 2.46 µM | 1.25 µM and 0.345 µM | 4.23 µM and 1.87 µM | 0.876 µM and 0.38 µM | 4.78 µM and 2.32 µM | 3.59 µM and 3.45 µM | > 100
CCN1CCN(CC(=O)N2c3cccc4cccc(c34)N(C(=O)CN3CCN(CC)CC3)C2c2cn(-c3ccccc3)nc2-c2cccc([N+](=O)[O-])c2)CC1 | 2.06 µM | 5.01 µM | 1.56 µM | 2.94 µM | 1.62 µM | 3.11 µM | 0.671 µM | 2.49 µM |  |  | 1.51 µM | 3.14
CCOC(=O)c1c2c(n3ccccc13)C(=O)c1ncccc1C2=O | 0.0581 µM | 6 µM | 0.111 µM | 1.96 µM | 0.0413 µM | 1.78 µM | 0.279 µM | 28.9 µM | 0.0544 µM | 3.5 µM |  | 
C=C1CC2(OC1=O)C(=O)Nc1ccccc12 (stereo unspecified) | 2.91 µM | 11 µM | 1.88 µM | 3.81 µM | 1.56 µM | 3.03 µM | 1.28 µM | 2.75 µM | 1.85 µM | 5.24 µM | 6.48 µM | 24.7
O=C1C(Cl)=C(NCc2ccco2)C(=O)c2ccccc21 | 22.5 µM | > 100 µM | 20.9 µM | 54 µM | 7.1 µM | 72.7 µM | 23.2 µM | 62.2 µM | 18.8 µM | > 60.7 µM | 4.78 µM | > 100
COc1cc2c(cc1OC)C13CCN4CC5CCOC6CC(=O)N2C1C6C5CC43 (stereo unspecified) |  | > 100 µM |  | > 100 µM |  | > 100 µM |  | > 100 µM |  | > 100 µM |  | > 100
CC(=O)OCc1cc2ccccc2nc1C(Br)(Br)Br |  |  |  | 38.2 µM |  | 29.2 µM |  | 31.2 µM |  | 60.8 µM |  | 33.8
COc1ccc(-c2ccc(-c3ccc(C(=N)N)o3)o2)cc1 | 3.19 µM | 11.4 µM | 1.88 µM | 3.63 µM | 1.46 µM | 2.96 µM |  |  | 22 µM | 42.8 µM | 1.17 µM | 3.28
